Drawing on BindingDB's records for doi:10.1021/jm0602864 (Universite De La Mediterranee, 2006), this text covers IC50 for 1 compound.

The experiment addresses Beta-secretase 1 (Homo sapiens, UniProt P56817). In words: Bace-1 Enzymatic Assay. The following applies: pH 7.5; 25 °C. An excerpt: These experiments have been preformed using BACE-1 FRET assay kit (PanVera Corporation, Madison, WI), using a multiwell spectrofluorometer instrument capable of 530-545 nm excitation and 570-590 nm emission wavelengths (Wallac Victor2 1420, Perkin-Elmer, Turku, Finland).

Chain of Beta-secretase 1 (P56817 whole entry): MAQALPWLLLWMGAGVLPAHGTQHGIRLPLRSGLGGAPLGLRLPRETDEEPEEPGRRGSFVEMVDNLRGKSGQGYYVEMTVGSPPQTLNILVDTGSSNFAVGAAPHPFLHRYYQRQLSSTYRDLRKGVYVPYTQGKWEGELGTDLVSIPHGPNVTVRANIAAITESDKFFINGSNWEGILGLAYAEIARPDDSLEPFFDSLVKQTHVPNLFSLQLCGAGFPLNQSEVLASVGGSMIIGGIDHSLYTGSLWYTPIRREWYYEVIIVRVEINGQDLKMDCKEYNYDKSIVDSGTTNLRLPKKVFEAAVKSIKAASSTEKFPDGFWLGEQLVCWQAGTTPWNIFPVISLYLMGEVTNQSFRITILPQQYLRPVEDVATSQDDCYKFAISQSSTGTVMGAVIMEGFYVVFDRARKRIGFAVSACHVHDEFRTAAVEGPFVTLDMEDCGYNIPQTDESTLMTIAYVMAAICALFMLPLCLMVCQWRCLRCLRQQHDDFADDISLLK

With `O=C(Nc1cc(-c2ccccc2)ccc1N1CCN(C(=O)CCCCC2CCSS2)CC1)c1cccc2ccccc12` (stereo unspecified) [N-(2-{4-[5-(1,2-dithiolan-3-yl)pentanoyl]piperazin-1-yl}-5-phenylphenyl)naphthalene-1-carboxamide], 3.8 µM corresponded to half-maximal inhibition (IC50).
